Results taken from paper PMC12516728, “Harnessing the Estradienone Scaffold to Develop Dual GPBAR1 and LIFR Modulators for Liver Fibrosis” (Journal of Medicinal Chemistry, 2025).

The compounds below were run against T1, LIF-LIFR interaction (recombinant human LIFR His-Tag / biotinylated LIF) (Homo sapiens, UniProt P42702) (assay: Cell-free AlphaScreen assay of LIF-LIFR interaction). Settings: not given.
T1 construct: purchased Sino Biological (LIFR); R&D Systems (LIF)
T1 sequence (P42702 45-833 limits assumed): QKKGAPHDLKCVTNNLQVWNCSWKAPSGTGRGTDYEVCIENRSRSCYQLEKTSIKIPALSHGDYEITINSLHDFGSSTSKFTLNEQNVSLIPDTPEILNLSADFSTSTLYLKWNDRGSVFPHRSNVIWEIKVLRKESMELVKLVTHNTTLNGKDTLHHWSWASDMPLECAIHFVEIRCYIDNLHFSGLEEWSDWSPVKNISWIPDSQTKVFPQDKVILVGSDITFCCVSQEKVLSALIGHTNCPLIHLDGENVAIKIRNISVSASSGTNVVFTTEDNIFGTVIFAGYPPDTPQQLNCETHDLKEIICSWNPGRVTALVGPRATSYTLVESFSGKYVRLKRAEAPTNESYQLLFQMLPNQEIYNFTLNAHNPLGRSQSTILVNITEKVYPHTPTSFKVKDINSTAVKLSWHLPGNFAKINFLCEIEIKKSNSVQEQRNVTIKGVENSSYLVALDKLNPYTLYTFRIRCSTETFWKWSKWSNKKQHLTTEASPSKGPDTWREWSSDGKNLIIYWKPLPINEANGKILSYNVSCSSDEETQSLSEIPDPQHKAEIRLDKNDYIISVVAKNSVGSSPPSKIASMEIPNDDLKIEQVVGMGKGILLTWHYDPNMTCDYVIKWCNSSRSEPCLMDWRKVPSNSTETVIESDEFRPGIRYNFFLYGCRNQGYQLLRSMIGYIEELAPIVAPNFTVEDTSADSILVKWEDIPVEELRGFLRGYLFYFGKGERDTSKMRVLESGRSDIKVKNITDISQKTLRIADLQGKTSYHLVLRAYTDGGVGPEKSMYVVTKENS
Assay type: binding
Protocol: Recombinant human LIFR (His-Tag) and LIF (biotinylated) were purchased from Sino Biologicals (Sino Biological Europe GmbH, Dusseldorf, Germany) and R&D Systems (Abingdon, UK), respectively, and both were reconstituted as required by the manufacturer. Inhibition of LIFR/LIF binding was measured by AlphaScreen, in white, low-volume, 384-well AlphaPlates (PerkinElmer, Waltham, MA, USA) using a final volume of 15 μL and an assay buffer containing 25 mM Hepes (pH 7.4), 100 mM NaCl, and 0.005% Kathon. The concentration of DMSO in each well was maintained at 5% v/v. […] Then, streptavidin donor beads were added (final concentration 20 ng/μL), and the plate was incubated in the dark for 2 h and then read in an EnSpire Alpha multimode plate reader (PerkinElmer, Waltham, MA, USA). […] Each concentration was tested in triplicate (N = 3). When present, outliers were removed, resulting in N = 2. Data, reported as averaged intensity values ± standard deviation and N, were exploited to fit the curves through GraphPad Prism 8.

Row | SMILES | IC50 [µM]
1 | COC(=O)c1cccc(-c2ccc([C@H]3C[C@]4(C)C(=O)CC[C@H]4[C@@H]4CCC5=CC(=O)CCC5=C43)cc2)c1 [Compound 2s] | 0.159 ± 0.06
2 | C[C@]12C[C@H](c3ccc(I)cc3)C3=C4CCC(=O)C=C4CC[C@H]3[C@@H]1CCC2=O [Compound 1f, 11β-(4-Iodophenyl)estra-4,9-dien-3,17-dione] | 9.78 ± 1.75
3 | C[C@]12C[C@H](Cc3ccc(O)cc3)C3=C4CCC(=O)C=C4CC[C@H]3[C@@H]1CCC2=O [Compound 1e, 11β-(4-Hydroxybenzyl)estra-4,9-dien-3,17-dione] | 45.6 ± 10.5
4 | C[C@]12C[C@H](c3ccc(-c4ccccc4)cc3)C3=C4CCC(=O)C=C4CC[C@H]3[C@@H]1CCC2=O [Compound 1a] | 1.42 ± 0.2
5 | COc1ccc(C[C@H]2C[C@]3(C)C(=O)CC[C@H]3[C@@H]3CCC4=CC(=O)CCC4=C23)cc1 [Compound 1d, 11β-(4-Methoxybenzyl)estra-4,9-dien-3,17-dione] | 43.1 ± 4.6

Same assay, conditions: read-out: % LIFR inhibition (10 μM)

Row | SMILES | inhibition at 10 µM [%]
6 | COC(=O)c1cccc(-c2ccc([C@H]3C[C@]4(C)C(=O)CC[C@H]4[C@@H]4CCC5=CC(=O)CCC5=C43)cc2)c1 [Compound 2s] | 63.6 ± 4.1
7 | C[C@]12C[C@H](c3ccc(I)cc3)C3=C4CCC(=O)C=C4CC[C@H]3[C@@H]1CCC2=O [Compound 1f, 11β-(4-Iodophenyl)estra-4,9-dien-3,17-dione] | 45.4 ± 1.3
8 | C[C@]12C[C@H](Cc3ccc(O)cc3)C3=C4CCC(=O)C=C4CC[C@H]3[C@@H]1CCC2=O [Compound 1e, 11β-(4-Hydroxybenzyl)estra-4,9-dien-3,17-dione] | 29.3 ± 6.7
9 | C[C@]12C[C@H](c3ccc(-c4ccccc4)cc3)C3=C4CCC(=O)C=C4CC[C@H]3[C@@H]1CCC2=O [Compound 1a] | 62.4 ± 9.2
10 | COc1ccc(C[C@H]2C[C@]3(C)C(=O)CC[C@H]3[C@@H]3CCC4=CC(=O)CCC4=C23)cc1 [Compound 1d, 11β-(4-Methoxybenzyl)estra-4,9-dien-3,17-dione] | 26.5 ± 6.2

Same assay, conditions: read-out: % LIFR inhibition (50 μM)

Row | SMILES | inhibition at 50 µM [%]
11 | COC(=O)c1cccc(-c2ccc([C@H]3C[C@]4(C)C(=O)CC[C@H]4[C@@H]4CCC5=CC(=O)CCC5=C43)cc2)c1 [Compound 2s] | 74.3 ± 14.1
12 | C[C@]12C[C@H](c3ccc(I)cc3)C3=C4CCC(=O)C=C4CC[C@H]3[C@@H]1CCC2=O [Compound 1f, 11β-(4-Iodophenyl)estra-4,9-dien-3,17-dione] | 61.3 ± 7.5
13 | C[C@]12C[C@H](Cc3ccc(O)cc3)C3=C4CCC(=O)C=C4CC[C@H]3[C@@H]1CCC2=O [Compound 1e, 11β-(4-Hydroxybenzyl)estra-4,9-dien-3,17-dione] | 35.1 ± 13
14 | C[C@]12C[C@H](c3ccc(-c4ccccc4)cc3)C3=C4CCC(=O)C=C4CC[C@H]3[C@@H]1CCC2=O [Compound 1a] | 76.4 ± 4.1
15 | COc1ccc(C[C@H]2C[C@]3(C)C(=O)CC[C@H]3[C@@H]3CCC4=CC(=O)CCC4=C23)cc1 [Compound 1d, 11β-(4-Methoxybenzyl)estra-4,9-dien-3,17-dione] | 41.1 ± 8

What follows are compounds tested against T2, LIFR (Homo sapiens, UniProt P42702) (assay: Luciferase reporter (transactivation) assay on HepG2 cells transfected with LIFR). Settings: relative to LIF as 100%, mean ± SD.
T2 construct: expressed in transfected cells; host or cells: HepG2
T2 sequence (P42702 45-1097): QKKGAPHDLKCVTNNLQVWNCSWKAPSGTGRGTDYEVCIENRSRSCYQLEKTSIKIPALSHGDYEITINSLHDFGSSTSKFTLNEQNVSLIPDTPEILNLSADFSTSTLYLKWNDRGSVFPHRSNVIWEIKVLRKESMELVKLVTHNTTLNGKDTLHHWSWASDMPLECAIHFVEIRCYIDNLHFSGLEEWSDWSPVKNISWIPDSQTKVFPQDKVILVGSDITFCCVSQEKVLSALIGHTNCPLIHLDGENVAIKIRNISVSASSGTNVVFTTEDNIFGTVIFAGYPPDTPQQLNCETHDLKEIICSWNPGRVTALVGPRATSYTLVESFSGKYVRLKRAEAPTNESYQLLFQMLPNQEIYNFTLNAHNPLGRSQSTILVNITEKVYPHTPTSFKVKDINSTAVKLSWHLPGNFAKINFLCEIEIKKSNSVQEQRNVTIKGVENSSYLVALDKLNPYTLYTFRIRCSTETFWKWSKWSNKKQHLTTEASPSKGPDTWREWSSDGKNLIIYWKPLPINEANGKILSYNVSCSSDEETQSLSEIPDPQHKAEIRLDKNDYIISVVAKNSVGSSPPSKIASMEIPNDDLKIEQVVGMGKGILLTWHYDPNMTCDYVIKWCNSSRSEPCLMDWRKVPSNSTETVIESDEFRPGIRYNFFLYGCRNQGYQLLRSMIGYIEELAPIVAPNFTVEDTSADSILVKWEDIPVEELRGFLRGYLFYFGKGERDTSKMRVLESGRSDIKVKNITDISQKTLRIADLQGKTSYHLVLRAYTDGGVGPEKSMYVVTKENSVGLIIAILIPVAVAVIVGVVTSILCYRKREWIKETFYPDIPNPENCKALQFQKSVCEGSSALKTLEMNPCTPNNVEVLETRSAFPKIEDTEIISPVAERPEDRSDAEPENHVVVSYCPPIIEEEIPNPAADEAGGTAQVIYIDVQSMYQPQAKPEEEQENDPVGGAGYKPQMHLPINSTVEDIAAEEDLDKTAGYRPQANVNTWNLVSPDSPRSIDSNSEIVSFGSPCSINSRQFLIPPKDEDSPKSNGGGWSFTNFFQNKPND
Assay type: cell-based
Protocol: (§1) Hek293T cells, obtained from ATCC (Manassas, VA, USA), were cultured in a D-MEM medium (Sigma-Merk Life Science S.r.l., Milan, Italy) enriched with 10% fetal bovine serum, 1% L-glutamine, and 1% penicillin/streptomycin. HEPG2 cells, also from ATCC, were grown in an MEM medium (Euroclone, reference ECB2071L) supplemented with 10% fetal bovine serum (Euroclone, reference ECS5000L), 1% L-glutamine (Euroclone, reference ECB3000D), and 1% penicillin/streptomycin (Euroclone, reference ECB3001D). All cultures were maintained in a humidified environment with 5% CO2 at 37 °C. Additionally, it was confirmed that the cells were free from Mycoplasma contamination, as verified using the Mycoplasma PCR Detection Kit (Aurogene, reference G238).
(§2) The luciferase reporter gene assay protocol takes place over four days. On the first day, HEPG2 or HEK293T cells are seeded in a 24-well plate at a density of 7.5 × 10^4 cells/well for HEPG2 or 2.5 × 10^4 cells/well for HEK293T. On the second day, cells are transiently transfected, preparing a separate mix for each receptor. To assess the phosphorylation of STAT3 signaling, HEPG2 cells were transfected with 200 ng of the reporter vector containing the Pgl4.47 response element, along with 100 ng each of LIFR, IL6ST (gp130), and pGL4.70 (Promega, Madison, WI), a vector encoding the human Renilla gene. The following day, the cells were stimulated with 10 ng/mL LIF, either alone or in combination with 2o at concentrations of 0.1, 1, 10, 25, and 50 μM, to generate a dose–response curve. For GPBAR1 agonism, HEK293T cells were transfected with 200 ng of the reporter vector pG29-CRE-LUC, 150 ng of pcmvsport-hTGR5, and 150 ng of pGL4.70, the human Renilla gene. The following day, cells were stimulated with 10 μM TLCA alone as a positive control and compound 2o at concentrations of 1 and 10 nM, as well as 0.1, 1, 2.5, 5, 10, 20, and 30 μM, to generate a dose–response curve. On the final day, cellular lysates were analyzed for luciferase and Renilla activities using the Dual-Luciferase Reporter Assay System (Promega, Madison, WI). pLuminescence was measured with a Glomax 20/20 luminometer (Promega, Madison, WI), and luciferase activities were normalized to Renilla activities.

Row | SMILES | inhibition at 10 µM [%]
16 | COC(=O)c1cccc(-c2ccc([C@H]3C[C@]4(C)C(=O)CC[C@H]4[C@@H]4CCC5=CC(=O)CCC5=C43)cc2)c1 [Compound 2s] | 80.8 ± 0.9
17 | C[C@]12C[C@H](c3ccc(I)cc3)C3=C4CCC(=O)C=C4CC[C@H]3[C@@H]1CCC2=O [Compound 1f, 11β-(4-Iodophenyl)estra-4,9-dien-3,17-dione] | 89.9 ± 1.2
18 | C[C@]12C[C@H](Cc3ccc(O)cc3)C3=C4CCC(=O)C=C4CC[C@H]3[C@@H]1CCC2=O [Compound 1e, 11β-(4-Hydroxybenzyl)estra-4,9-dien-3,17-dione] | 29.1 ± 1.4
19 | C[C@]12C[C@H](c3ccc(-c4ccccc4)cc3)C3=C4CCC(=O)C=C4CC[C@H]3[C@@H]1CCC2=O [Compound 1a] | 33.8 ± 3.7
20 | COc1ccc(C[C@H]2C[C@]3(C)C(=O)CC[C@H]3[C@@H]3CCC4=CC(=O)CCC4=C23)cc1 [Compound 1d, 11β-(4-Methoxybenzyl)estra-4,9-dien-3,17-dione] | 92 ± 7

The compounds below were run against T3, GPBAR1 (Homo sapiens, UniProt Q8TDU6) (assay: Luciferase reporter (transactivation) assay on HEK293T cells transfected with GPBAR1). Settings: HEK-293T, relative to TLCA (10 μM) as 100%, mean ± SD, na = not active, read-out: GPBAR1 eff % (10 μM).
T3 construct: expressed in transfected cells; host or cells: HEK293T
T3 sequence (Q8TDU6 1-330): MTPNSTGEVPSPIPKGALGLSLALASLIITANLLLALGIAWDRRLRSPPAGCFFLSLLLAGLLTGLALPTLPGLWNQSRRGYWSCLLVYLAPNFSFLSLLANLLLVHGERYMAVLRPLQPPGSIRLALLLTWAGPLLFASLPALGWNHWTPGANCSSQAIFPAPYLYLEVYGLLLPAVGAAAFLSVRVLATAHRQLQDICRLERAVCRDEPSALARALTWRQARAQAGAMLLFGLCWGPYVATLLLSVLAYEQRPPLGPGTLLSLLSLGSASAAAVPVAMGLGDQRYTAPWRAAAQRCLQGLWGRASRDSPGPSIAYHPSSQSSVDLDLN
Assay type: cell-based
Protocol: as §1, §2

Row | SMILES | Emax at 10 µM [%]
21 | COC(=O)c1cccc(-c2ccc([C@H]3C[C@]4(C)C(=O)CC[C@H]4[C@@H]4CCC5=CC(=O)CCC5=C43)cc2)c1 [Compound 2s] | > 50
22 | C[C@]12C[C@H](Cc3ccc(O)cc3)C3=C4CCC(=O)C=C4CC[C@H]3[C@@H]1CCC2=O [Compound 1e, 11β-(4-Hydroxybenzyl)estra-4,9-dien-3,17-dione] | 9 ± 4
23 | C[C@]12C[C@H](c3ccc(-c4ccccc4)cc3)C3=C4CCC(=O)C=C4CC[C@H]3[C@@H]1CCC2=O [Compound 1a] | 44.8 ± 5.1
